Data: patent US20170267727A1, “Conjugates of pH Low Insertion Peptide and Monomethyl Auristatins in the Treatment of Solid Tumors” (Lehigh University, priority 2016, published 2017)
“Also recorded” adds a separate entry of the source. Positions of bridges follow the written chain, without caps; N, C: chain ends. Non-standard residues stand in square brackets, D forms with d. Chains are numbered I, II in the order given. *: point of attachment. Dolaproine = CO[C@@H]([C@@H]1CCCN1)[C@@H](C)C(=O)O; Dil = CC[C@H](C)[C@H](NC)[C@@H](CC(=O)O)OC; X1 = C[C@@H](N*)[C@@H](O)c1ccccc1; NMeV = CN[C@H](C(=O)O)C(C)C; Mpa = O=C(O)CCS

Assays:
MDA-MB-231 cells [1] = experiment: Anti-proliferation Assay (2 hours treatment at pH 7.4 or 5.0, 72 hours growth, MTT); conditions: for cell killing (printed 49% versus 100%): 1.25 μM treatment
Method: FIG. 3A, FIG. 3C and FIG. 3E show HeLa cells treated with pHLIP(WT)-MMAE, pHLIP(D25E)-MMAE, and MMAE(linker), respectively. FIG. 3B, FIG. 3D and FIG. 3F show MDA-MB-231 cells treated with pHLIP(WT)-MMAE, pHLIP(D25E)-MMAE, and MMAE(linker), respectively. Black columns represent cells treated at pH 7.4 and cells treated at low pH are shown in grey. For each condition, 3,000 cells/well (96-well plate) were seeded, allowed to adhere overnight, treated for 2 hours, washed once with media and grown for 72 hour in complete medium at physiologic pH. Cell viability was assessed with the MTT assay. All measurements were normalized to the media control (0 μM, pH 7.4), as 100% cell viability. Results are shown as mean±SD (n=6-9).
Anti-proliferation Assay. HeLa and MDA-MB-231 cells were seeded in 96-well plates at a density of 3,000 cells/well and incubated overnight. Before treatment, construct aliquots were solubilized in an appropriate volume of DMEM without FBS (pH 7.4)—so that upon pH adjustment the desired treatment concentration is obtained—and gently sonicated for 30-60 seconds using a bath sonicator (Branson Ultrasonics). After removal of cell media, this treatment solution was added to each well and incubated at 37° C. for 5-10 minutes. The pH was then adjusted to the desired value using a pre-established volume of DMEM, pH 2.0 buffered with citric acid (final volume=50 μL) and the plate was incubated at 37° C. for 2 hours. After treatment, the media was removed, cells were washed once with 100 μL of complete DMEM, and 100 μL of complete medium was added to each well before returning the plate to the incubator. Treatment solutions were collected and their pH values measured using a micro-combination pH probe (Microelectrodes, Inc.). […] Cell viability was determined after 72 hours using the colorimetric MTT assay. Briefly, 10 μL of a 5 mg/mL MTT stock solution was added to the treated cells and incubated for 2 hours at 37° C. The resulting formazan crystals were solubilized in 200 μL DMSO and the absorbance measured at 580 nm using an Infinite 200 PRO microplate reader (Tecan). Cell viability was calculated against control cells treated with media at physiologic pH.
Inhibition of Cell Proliferation. The ability of pHLIP to move MMAE across the cell membrane and to inhibit cancer cell proliferation in concentration and pH-dependent manners was evaluated. Cell treatments for both pHLIP(WT)-MMAE and pHLIP(D25E)-MMAE constructs were carried out with conjugate concentrations ranging from 1.25 to 10 μM at either pH 7.4 or 5.0. After a 2-hour incubation at 37° C., the treatment media was replaced by fresh media, and cells were grown for an additional 72 hours at normal pH before assessing cell viability using the MTT assay. […] This treatment protocol is quite stringent when compared to the typical multi-days exposure treatments used with free drugs (FIG. 6A and FIG. 6B).

[2] = Construct Stability HPLC in Cell Media; format: physicochemical; conditions: 10 μM, 2 h at pH 5.0 and 37° C.
Method: FIG. 8A, FIG. 8B, and FIG. 8C show Purity check and Chemical stability of pHLIP-MMAE conjugates. (FIG. 8A) and (FIG. 8B): HPLC traces of pHLIP(WT)-MMAE and pHLIP(D25E)-MMAE, respectively: Purified conjugates (upper panels), 10 μM of conjugate in cell media (middle panels) and after incubation in cell media for 2 h at pH 5.0 and 37° C. (lower panels). The small peak observed around 27 min in (FIG. 8B) upper panel corresponds to some residual free pHLIP (<15%), which is known to not be cytotoxic (FIG. 7). (FIG. 8C) HPLC traces of Alexa750-pHLIP(WT)-MMAE: Purified conjugate (upper panel), 10 μM Alexa 750-pHLIP(WT)-MMAE before (upper panel) and after 48 h incubation in mouse serum at 37° C. (lower panel). Purity checks and chemical stability runs were performed on different column and with different flow rate, explaining the difference in retention times and peak broadness (see Experimental Section). […]
Peptide solutions were incubated at either pH 7.4 or pH 5.0 (37° C. and 5% CO2) and 100 μL aliquots were monitored via RP-HPLC at various time points (Agilent Eclipse XDB-C18 […] 9.4×250 mm; flow rate 2 mL/min; phase A: water 0.01% TFA; phase B: acetonitrile 0.01% TFA; gradient 45 min from 95/5 A/B to 0/100 A/B). […] The stability of Alexa750-pHLIP(WT)-MMAE was determined in mouse serum by solubilizing the construct to incubating it at 37° C. and monitoring via RP-HPLC at specific time points.

MDA-MB-231 cells [3] = conditions: 10 μM, 2 hours, pH 7.4 or pH 5.0
Method: (§1) The integrity of the plasma membrane is assessed by the uptake of trypan blue dye. 3,000 cells/well of HeLa (FIG. 4A) and MDA-MB-231 (FIG. 4B) cells were seeded, allowed to adhere overnight and treated with 10 μM conjugates or media alone (no peptide) for 2 hours at pH 7.4 (black bars) or pH 5.0 (grey bars). Cells were detached and counted based on trypan blue uptake with a hemacytometer: % of intact cells corresponds to the number of cells not showing any dye uptake over the total number of cells. Results are shown as mean±SD (n=4).
(§2) Cell Membrane Integrity Assay. HeLa and MDA-MB-231 cells were seeded in 96-well plates at a density of 3,000 cells/well and incubated until confluent (˜72 hours). Before treatment, construct aliquots were solubilized in an appropriate volume of DMEM without FBS (pH 7.4) so that upon pH adjustment 10 μM is obtained. Cell media was removed, the treatment solution was added to each well and cell were incubated at 37° C. for 5-10 minutes. The pH was then adjusted to the desired value using a pre-established volume of DMEM, pH 2.0 buffered with citric acid (final volume=50 μL). The plate was incubated at 37° C. for 2 hours. After treatment, the media was removed, cells were detached using trypsin and counted based on trypan blue uptake using a hemacytometer.

HeLa cells = conditions: 10 μM, 2 hours, pH 7.4 or pH 5.0
Method: as §1, §2

Row | Substance | cell killing (printed 49% versus 100%) (MDA-MB-231 cells [1]) [%] | inhibition of proliferation (MDA-MB-231 cells [1]; normal pH) | degradation in cell media by HPLC or mass spectroscopy [2] | disruption of the plasma membrane (MDA-MB-231 cells [3]) | disruption of the plasma membrane (HeLa cells)
1 | I: H-AAEQNPIYWARYADWLFTTPLLLLDLALLVDADEGTCG-OH / II: [Mpa][NMeV]V[Dil][Dolaproine]-X1 (disulfide I:37-II:1) [pHLIP(WT)-MMAE] | 100 | no significant inhibition of proliferation | No significant degradation; also recorded: no degradation products are observed | neither conjugates, nor low pH treatment, caused disruption of the membranes | neither conjugates, nor low pH treatment, caused disruption of the membranes
2 | I: H-AAEQNPIYWARYADWLFTTPLLLLELALLVDADEGTCG-NH2 / II: [Mpa][NMeV]V[Dil][Dolaproine]-X1 (disulfide I:37-II:1) [pHLIP(D25E)-MMAE] | 49 | – | No significant degradation; also recorded: no degradation products are observed | neither conjugates, nor low pH treatment, caused disruption of the membranes | neither conjugates, nor low pH treatment, caused disruption of the membranes
